Legend:
[1] = system: Ig fraction of rabbit polyserum; assay: ELISA with Ig fraction of rabbit polyserum; type: binding
[2] = various species, including man; cited from earlier work
[3] = YEAK in serum of mice after IV or SC dosing, detected by anti-YEAK ELISA; type: in vivo
CCL22 = assay: Acute release of CCL22 (MDC) in serum or plasma after SC YEAK administration in mice; type: in vivo
[4] = system: monocyte cell line RAW264.7; assay: CCL22 release bioassay in the monocyte cell line RAW264.7; type: cell-based
From the text: Following synthesis of different DSP compositions, for example by solid phase synthesis or by solution phase synthesis, the individual lots or batches made by the same manufacturing process, and individual batches of mixtures manufactured by different processes may be tested and compared for variation using bioassays. Depending on the indication of the DSP composition, appropriate bioassays include the release of CCL22 by the monocyte cell line RAW264.7, ex vivo proliferation assays, and measuring the binding of serum proteins to peptides in the DSP composition. Using these bioassays, one may determine subsets of peptides or even individual peptides that are present in any given process or lot. Processes and lots of DSP compositions will be compared to determine whether the same subsets of peptides and/or types of peptides are consistently represented across the different processes and lots.

[5] = mice dosed IV 4 mg/kg or SC 21 mg/kg, route for this value not stated

Substance	interaction with / recognition by Ig fraction of rabbit polyserum [1]	persistence in serum after subcutaneous administration [2]	maximum serum concentration [3, 5] [ng/mL]	time of maximum serum concentration post dosing [3, 5]	detection in serum at 2 hours post-dosing ([3]; mice, 2 hours post-dosing)	relation between dose administered SC and observed maximum CCL22 plasma concentration (CCL22)	CCL22 release by RAW264.7 cells [4]
glatiramer acetate [Copaxone]	interacts strongly	can be detected in serum of various species, including man, several hours after subcutaneous administration	1800	around 15 min	still detected	linear correlation	released CCL22 in a concentration dependent manner
plovamer [PI-2301]		can be detected in serum of various species, including man, several hours after subcutaneous administration					

Reference: patent publication US20120282296A1, “METHODS FOR IMPROVING THE DESIGN, BIOAVAILABILITY, AND EFFICACY OF DIRECTED SEQUENCE POLYMER COMPOSITIONS VIA SERUM PROTEIN-BASED DETECTION OF DIRECTED SEQUENCE POLYMER COMPOSITIONS” (ARES TRADING SA, priority 2009, published 2012)
